Key:
[1] = test system: cancer cells expressing KRAS mutations; assay: Cell viability assay in cancer cells expressing KRAS mutations; assay type: cell-based
Text: It was further examined that if Compound 1 can also induce cytotoxic effects on other cancer cells expressing KRAS mutations, a panel of cancer cell lines which harbor KRAS G12D, G12V and G12C point mutations respectively, were selected and used with KRAS wild-type (WT) controls.
The cytotoxicity of Compound 1 was initially evaluated in a panel of 30+ cell lines with wild-type (WT) KRAS or known KRAS mutations.

[2] = test system: CRAF, AKT and ERK phosphorylation in KRAS mutant cell lines; assay: Phosphorylation of KRAS downstream signaling pathway; assay type: cell-based; details: 48 h, time-dependent
Method: Active KRAS stimulates downstream signaling pathways, especially for RAF/MEK/ERK and […] pathway, and then induces cell proliferation. Therefore, to investigate the effect of Compound 1, the phosphorylation levels of CRAF, AKT and ERK in cell lines was examined to monitor the impact of KRAS signaling by treatment with this compound for 48 h.

[3] = test system: mutant-KRAS-driven cancer; assay: In vivo tumor model (PDTX animal model); set-up: species or system mice
Text: FIG. 18 depicts regression of all mutant-KRAS-driven cancer in PDTX Animal Model.
Compound 1 was also found to inhibit downstream signaling.

KRAS-driven lung tumor = assay: Tumor growth in xenograft model; assay type: in vivo
Method: The in vivo efficacy of Compound 1 in the context of mutant KRAS was next assessed. Cells were injected into nude mice, and the tumors were allowed to grow to about 60 mm^3 in size and treated daily with Compound 1 for 14-21 days. […] At the day of harvest, the net tumor mass was determined and the average tumor weight of the Compound 1 treatment group was 89% less than the average tumor weight of the control group. […] The effect of Compound 1 treatment were further examined on KRAS-mediated RAF, MEK/ERK, and PI3K/AKT cascades in protein extracts derived from vehicle- and Compound 1-treated tumors.

Pharmacokinetics in mice = assay type: in vivo
[4] = test system: miR-30c and miR-21 in mutant KRAS; assay: miR-30c and miR-21 and tumor suppressor gene expression (microarray analysis); assay type: cell-based
Text: The effect of Compound 1 on the expression of miR 30c and miR-21 in mutant form of KRAS and Wild type was observed. […] Based on these observation our molecules targets miRNA in KRAS mutant model which acts as an attractive therapeutic tools in cancer medicine, because these miRNA that can silence multiple gene(s) and therefore switch off different pathways simultaneously, which is not possible with protein-based drugs and other covalent inhibitor of different KRAS mutant form, and eventually Compound 1 has no toxicity or off target effects compared to other standard drugs

normal cell lines = assay: Toxicity in normal cell lines; assay type: cell-based
Pharmacokinetics in rats = assay type: in vivo
[5] = test system: KRAS downstream signaling proteins in wild type KRAS; assay: Downstream signaling proteins, wild type KRAS (protein and gene expression analysis); assay type: cell-based
In vivo toxicity studies = assay: In vivo toxicity studies
Text: FIG. 20 depicts the results of in vivo toxicity studies of Compound 1. Organ weight, Body weight, liver weight, haematological parameters, serum electrolyte LFT, KFT, Lipid parameters found to be normal range compared with the controlled group.
Tests of blood cells (WBC, RBC, and PLT) for bone marrow, RFT for kidney, and ALT/AST for liver functions all provided results in the normal range.

wild-type (WT) KRAS = assay: RAS activation assay, GTP-KRAS in wild-type cells; assay type: cell-based
Text: Actually, mutant KRAS would interfere the balance between GEFs and GAPs, resulting in locking in the active GTP-bound KRAS state and aberrant stimulation of its downstream signaling.
Significant increased expression of Immune cells has been observed in Compound 1 treatment.

mitosis = assay: Cell cycle analysis of DNA content and phospho-histone H3B immunofluorescence; assay type: cell-based
Text: (§1) The present invention is aimed to invent powerful, therapeutic small molecules that could target mutant KRAS on its active sites. Here we identified a small molecule, compound I, that binds the GTP/GDP-binding pocket of KRAS. For this purpose we studied a strong correlation of measurement among a larger panel of tumor cell lines expressing KRAS mutation and analyses the potency to inhibit the tumor cell growth activated RAS. […] Therefore, compound I may be considered as a potential KRAS inhibitor for treatment of cancer cells carrying KRAS oncogene.

[6] = test system: RAS-MAPK pathway signaling in KRAS G12C mutant cell lines; assay: Reactivation of RAS signaling in KRAS G12C mutant cell lines; assay type: cell-based
Text: Densitometry of phosphor-ERK, MEK, AKT, and MYC is normalized to GAPDH. Results represent an average across 8 cell lines.

p53 = assay: Expression of p53 and apoptosis-related genes (qRT-PCR); assay type: cell-based; details: cancer cells
Method: FIG. 11 depicts compound I Targeting p53 (mRNA levels of p53, Puma, and Noxa in cells at 6 hours after compound I treatment. mRNA levels were quantified by qRT-PCR. Data were normalized to GAPDH expression and plotted relative to cells treated with DMSO as control)

PD-L1 = PD-L1 expression; assay type: cell-based
Text: as §1

In the case of `CCCCc1ncc(C(=O)C2CC=C(C(N)=O)N2)cc1C(=O)OCC` (stereo not shown) [Compound 1], the “IC50 values, cancer cells and stem cells viability” value ([1]; KRAS G12D, G12V and G12C cell lines, 24 h) is reported as “nanomolar concentration”, the “IC50 values, cancer cell viability” value ([1]; panel of 30+ cell lines with WT KRAS or known KRAS mutations) is reported as “micromolar to nanomolar concentrations” and the “levels of phosphorylation of CRAF and AKT” value [2] is reported as “reduced the levels of phosphorylation”. The tumor growth suppression ([3]; all mutant-KRAS-expressing animal models, started at day 9) was “significant suppression from day 10-14”, the relapse ([3]; for 6-8 months) was “no evidence of relapse” and the “reduction in tumor growth” value ([3]; within 28 days) was 95%. The “apoptotic cells by cleaved caspase-3 staining in tumors” value (KRAS-driven lung tumor; immunohistochemistry) was “prominent increase of apoptotic cells”, the “cell proliferation by Ki-67 staining in tumors” value (KRAS-driven lung tumor; immunohistochemistry) was “large reduction in cell proliferation” and the “body weight loss or apparent toxicity” value (KRAS-driven lung tumor; nude mice (n=6) after treatment) was “no significant body weight loss or apparent toxicity”. The “tumor growth suppression compared to vehicle treated controls” value (KRAS-driven lung tumor; nude mice xenograft, suppression starting at day 9) was “significant suppression from day 10 to day 14”, the “average tumor weight less than the control group” value (KRAS-driven lung tumor; nude mice, treated daily for 14-21 days, day of harvest) was 89% and the “CRAF, ERK, and AKT phosphorylation in tumor protein extracts” value (KRAS-driven lung tumor; treated vs vehicle tumors) was “significant suppression”. The T1/2 (Pharmacokinetics in mice) was “T1/2 = 5.8 h (mice)”, the Cmax (Pharmacokinetics in mice; 10 mg/kg b.wt.) was “Cmax = 2.6 μg/mL (10 mg/kg b.wt. mice)” and the T max (Pharmacokinetics in mice; 10 mg/kg b.wt.) was “T max = 2 h (mice 10 mg/kg, b.wt;)”. It also gave a miR21 expression ([4]; control 0.72 ± 0.02) of 1.58 ± 0.32, a miR30c expression ([4]; control 0.96 ± 0.025) of 1.89 ± 0.25 and an NF1 expression ([4]; control 1.56 ± 0.06) of 1.21 ± 0.033. The BID expression ([4]; control 1.56 ± 0.36) was 0.32 ± 0.012, the RASA1 expression ([4]; control 1.69 ± 0.36) was 0.32 ± 0.031 and the “expression of miR 30c and miR-21” value ([4]; mutant form of KRAS, microarray analysis) was “significantly reduced”. For the same compound, the “toxicity in normal cell lines” value (normal cell lines) was “minimum toxicity”, the Cmax (Pharmacokinetics in rats; rat, 10 mg/kg b.wt) was “Cmax = 1.9 μg/mL (10 mg/kg b.wt rat)” and the T1/2 (Pharmacokinetics in rats; rats) was “T1/2 = 9.8 h (rats)”. The T max (Pharmacokinetics in rats; rats, 10 mg/kg b.wt) was “T max = 2 h (rats, 10 mg/kg, b.wt; )”, the “expression of KRAS downstream signaling proteins MEK, RAF and PI3K” value [5] was “has not altered the expression” and the pERK level ([5]; control 1.42 ± 0.069) was 1.46 ± 0.23. The pCRAF level ([5]; control 1.52 ± 0.025) was 1.42 ± 0.25, the pP13K level ([5]; control 1.85 ± 0.32) was 1.62 ± 0.63 and the pAKt level ([5]; control 1.89 ± 0.63) was 1.72 ± 0.14. For the same compound, the pMEK level ([5]; control 1.96 ± 0.22) was 1.85 ± 0.32, the “histopathology of harvested normal tissues” value (In vivo toxicity studies; after treatment with specific doses) was “no evidence of normal tissue toxicities” and the “blood cells, kidney and liver function tests, organ and body weight” value (In vivo toxicity studies; compared with the controlled group) was “normal range”. For the same compound, the “GTP binding affinity in wild type KRAS” value (wild-type (WT) KRAS; wild type KRAS) was “no effect on GTP binding affinity”, the “effect on GTP-KRAS in cells with wild-type KRAS” value (wild-type (WT) KRAS; wild-type (WT) KRAS cells) was “no effect was observed” and the mitotic arrest (mitosis) was “induced mitotic arrest”. The “MAPK pathway signaling (phosphor-MEK, phosphor-ERK, phosphor-AKT)” value ([6]; at 4 hours) was “suppressed MAPK pathway signaling”, the “rebound of RAS-MAPK pathway signaling (pMEK, pERK, pAKT, MYC)” value ([6]; by 72 hours) was “no rebound activity was observed” and the “expression of p53” value (p53) was “upregulating the expression of p53”. For the same compound, the PD-L1 expression (PD-L1) was “suppresses PD-L1 expression”.

From patent US20230202981A1, “NOVEL SMALL MOLECULES FOR TARGETED DEGRADATION OF UNTARGETABLE KRAS IN CANCER THERAPY” (Pillai Universal LLC, priority 2020, published 2023)
